From US12692261B2, “Substituted heterocyclic compounds and therapeutic uses thereof” (Bayer Aktiengesellschaft, priority 2020, dated 2026)
pIC50: −log10 of the molar value.

How the values were obtained:
[1] = molecular target: T1, full-length human CSNK1A1 (Homo sapiens, UniProt P48729); test: CSNK1A1 Assay 2 (ADP-Glo, 1 μM ATP, substrate biotin-Ahx-KRRRAL-pS-VASLPGL); format: biochemical; details: Table 3, read-out: CSNK1A1 Assay 2 IC50 [mol/l] (median)
T1 construct: N-terminal Glutathion-S-Transferase (GST) and full-length human CSNK1A1; purchased Life Technologies PV4174; host or cells: baculovirus infected insect cells
T1 sequence (P48729 whole entry): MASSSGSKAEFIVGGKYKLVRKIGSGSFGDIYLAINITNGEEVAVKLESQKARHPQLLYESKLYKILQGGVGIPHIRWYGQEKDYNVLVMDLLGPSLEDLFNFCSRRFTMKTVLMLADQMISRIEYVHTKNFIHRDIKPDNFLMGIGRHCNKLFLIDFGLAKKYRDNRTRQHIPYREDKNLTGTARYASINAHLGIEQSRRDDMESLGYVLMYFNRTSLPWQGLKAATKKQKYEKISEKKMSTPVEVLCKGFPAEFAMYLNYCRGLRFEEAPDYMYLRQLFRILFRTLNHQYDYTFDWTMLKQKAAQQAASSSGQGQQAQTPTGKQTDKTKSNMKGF
Method in brief: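 GST-tagged full-length human CSNK1A1 from baculovirus-infected insect cells (about 0.0375 ng/μL), preincubated 15 min at 22 °C with compound in HEPES pH 7.5 buffer, with 1 μM ATP and biotin-Ahx-KRRRAL-pS-VASLPGL substrate. ADP formed read by ADP-Glo luminescence.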

[2] = molecular target: T2, wild-type Epidermal Growth Factor Receptor (EGFR) (Homo sapiens, UniProt P00533); test: WT-EGFR Kinase Assay (TR-FRET, 2 mM ATP); format: biochemical; details: EGFR Wildtyp 2 mM ATP IC50 [mol/l] (median), Table 4
T2 construct: a fragment of human EGFR (amino acids R669 to A1210); made in house; host or cells: Sf9 insect cells
T2 sequence (P00533 669-1210): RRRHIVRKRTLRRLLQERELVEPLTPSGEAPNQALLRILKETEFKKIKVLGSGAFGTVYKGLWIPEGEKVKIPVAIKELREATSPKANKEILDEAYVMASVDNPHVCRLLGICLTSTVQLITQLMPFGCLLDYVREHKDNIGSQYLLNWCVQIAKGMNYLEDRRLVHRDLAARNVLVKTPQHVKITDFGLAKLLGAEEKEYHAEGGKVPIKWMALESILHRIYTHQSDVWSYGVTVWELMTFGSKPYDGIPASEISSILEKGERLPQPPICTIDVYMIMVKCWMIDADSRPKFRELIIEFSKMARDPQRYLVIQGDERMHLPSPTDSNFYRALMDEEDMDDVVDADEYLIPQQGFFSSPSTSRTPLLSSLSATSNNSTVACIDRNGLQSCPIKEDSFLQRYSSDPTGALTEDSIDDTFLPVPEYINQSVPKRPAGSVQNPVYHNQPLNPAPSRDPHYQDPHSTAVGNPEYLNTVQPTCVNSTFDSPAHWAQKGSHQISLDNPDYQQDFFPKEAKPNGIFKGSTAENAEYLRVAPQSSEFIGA
Method in brief: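 GST-fused human EGFR fragment (R669-A1210) from Sf9 cells, typically 7.6 pg/μL, pre-incubated with compound 15 min at 22° C in Hepes pH 7.0 buffer with MgCl2, DTT and vanadate; biotinylated peptide substrate. After EDTA stop, phosphopeptide detected by TR-FRET (anti-phosphotyrosine Tb-cryptate/streptavidin-XL665), 665/620 nm emission ratio.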

| Compound | pIC50 [1] | pIC50 [2] |
| --- | --- | --- |
| O=C(Nc1cc(-c2[nH]c3cccnc3c2-c2ccccc2)ccn1)C(CC(F)F)c1ccc(F)cc1 (single isomer, unassigned; (-)) [Example 23, (−)-4,4-difluoro-2-(4-fluorophenyl)-N-[4-(3-phenyl-1H-pyrrolo[3,2-b]pyridin-2-yl)pyridin-2-yl]butanamide] | 7.47 | < 4.70 |
| Cc1cnc2c(-c3ccccn3)c(-c3ccnc(NC(=O)C(CC(F)F)c4ccc(F)cc4)c3)[nH]c2c1 (racemic) [Example 7, 4,4-difluoro-2-(4-fluorophenyl)-N-{4-[6-methyl-3-(pyridin-2-yl)-1H-pyrrolo[3,2-b]pyridin-2-yl]pyridin-2-yl}butanamide] | 8.56 | < 4.70 |
| O=C(Nc1cc(-c2[nH]c3c(C4CCCO4)cc(F)nc3c2-c2ccccn2)ccn1)C(CC(F)F)c1ccc(F)cc1 (racemic) [Example 114, (2RS)-4,4-difluoro-2-(4-fluorophenyl)-N-(4-{5-fluoro-3-(pyridin-2-yl)-7-[(2RS)-tetrahydrofuran-2-yl]-1H-pyrrolo[3,2-b]pyridin-2-yl}pyridin-2-yl)butanamide] | 8.17 | < 4.70 |
| O=C(Nc1cc(-c2[nH]c3cc(F)cnc3c2-c2ccccn2)ccn1)C(CC(F)F)c1ccc(F)cc1 (single isomer, unassigned; (+)) [Example 17, (+)-4,4-difluoro-2-(4-fluorophenyl)-N-{4-[6-fluoro-3-(pyridin-2-yl)-1H-pyrrolo[3,2-b]pyridin-2-yl]pyridin-2-yl}butanamide] | 8.77 | < 4.70 |
